Here are results for 31 compounds from patent publication US9624209B2, “Substituted phenylureas and phenylamides as vanilloid receptor ligands” (Gruenenthal GmbH, priority 2009, dated 2017).

The target in one experiment is T1, vanilloid receptor 1 (VR1/TRPV1 receptor) (Homo sapiens, UniProt Q8NER1).
T1 construct: expressed in transfected cells; host or cells: CHO K1 cells (ECACC), stably transfected
T1 sequence (Q8NER1 whole entry): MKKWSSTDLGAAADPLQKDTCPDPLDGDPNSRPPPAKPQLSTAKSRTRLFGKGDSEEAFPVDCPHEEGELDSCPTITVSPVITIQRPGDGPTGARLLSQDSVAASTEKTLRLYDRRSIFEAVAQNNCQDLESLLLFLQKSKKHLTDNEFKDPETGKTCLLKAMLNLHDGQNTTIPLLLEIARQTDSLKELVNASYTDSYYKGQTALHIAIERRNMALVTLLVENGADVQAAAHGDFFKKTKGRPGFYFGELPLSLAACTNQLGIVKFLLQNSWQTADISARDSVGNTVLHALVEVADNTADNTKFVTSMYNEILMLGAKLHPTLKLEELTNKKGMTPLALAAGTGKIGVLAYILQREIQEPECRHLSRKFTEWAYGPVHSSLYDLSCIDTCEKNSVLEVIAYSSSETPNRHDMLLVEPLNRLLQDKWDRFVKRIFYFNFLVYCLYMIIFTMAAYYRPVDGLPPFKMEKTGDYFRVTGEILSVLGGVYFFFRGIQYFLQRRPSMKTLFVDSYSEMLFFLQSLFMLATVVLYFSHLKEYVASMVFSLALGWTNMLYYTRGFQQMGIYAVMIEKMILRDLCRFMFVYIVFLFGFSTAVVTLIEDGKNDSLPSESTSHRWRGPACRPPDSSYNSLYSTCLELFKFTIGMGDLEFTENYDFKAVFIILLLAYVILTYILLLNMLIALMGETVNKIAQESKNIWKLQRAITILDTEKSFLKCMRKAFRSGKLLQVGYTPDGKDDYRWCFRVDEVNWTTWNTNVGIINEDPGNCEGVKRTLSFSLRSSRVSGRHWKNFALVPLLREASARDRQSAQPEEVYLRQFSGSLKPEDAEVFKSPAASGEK
Nature of the experiment: VR1/TRPV1 receptor affinity, capsaicin stimulus (human). It is filed as cell-based, human being. More on the design: key to (f) Ki (human being) [nM] Cap: result in words: AG=agonist; pAG=partial agonist; NE=no effect. The settings on record: @ 5 μM, Tables 8-12, read-out: (f) Ki (human being) [nM] Cap: inhibition (as a percentage).
`CC(C)(C)c1cc(CNC(=O)Nc2ccc(CN3CCCC3)c(F)c2)n(-c2cccc(Cl)c2)n1` [Example B101, 1-[[5-tert-Butyl-2-(3-chlorophenyl)-2H-pyrazol-3-yl]-methyl]-3-[3-fluoro-4-(pyrrolidin-1-yl-methyl)-phenyl]-urea]: the inhibition at 5 µM was found to be 43%.
Turning to `CC(C(=O)N(C)c1cc(C(F)(F)F)nn1-c1cccc(Cl)c1)c1ccc(C(=O)NC2CCOCC2)c(F)c1` (stereo not shown) [Example E23, 4-[1-[[2-(3-Chlorophenyl)-5-(trifluoromethyl)-2H-pyrazol-3-yl]-methyl-carbamoyl]-ethyl]-2-fluoro-N-tetrahydro-pyran-4-yl-benzamide], the inhibition at 5 µM worked out at 24.8%.
Same read-out and setting: to `CC(C(=O)NCc1cc(C(F)(F)F)nn1-c1cccc(Cl)c1)c1ccc(CN(C)C)c(F)c1` (stereo not shown) [Example B65, N-[[2-(3-Chlorophenyl)-5-(trifluoromethyl)-2H-pyrazol-3-yl]-methyl]-2-[4-(dimethylaminomethyl)-3-fluoro-phenyl]-propionamide] belongs 36%.

Staying with this experiment, now noted: Tables 8-12.
With `CC(C)(C)c1cc(CNC(=O)Nc2ccc(CCO)c(F)c2)n(-c2cccc(Cl)c2)n1` [Example A140, 1-[[5-tert-Butyl-2-(3-chlorophenyl)-2H-pyrazol-3-yl]-methyl]-3-[3-fluoro-4-(2-hydroxy-ethyl)-phenyl]-urea], the “(f) Ki (human being) [nM] Cap: result in words” value is “AG”.
Take `COc1ccc(NC(=O)NCc2cc(C(F)(F)F)nn2-c2cccc(Cl)c2)cc1O` [Example A16, 1-[[2-(3-Chlorophenyl)-5-(trifluoromethyl)-2H-pyrazol-3-yl]-methyl]-3-(3-hydroxy-4-methoxy-phenyl)-urea]: the “(f) Ki (human being) [nM] Cap: result in words” value is reported as “AG”.

Still in this experiment, the particulars now being: Tables 8-12, read-out: (f) Ki (human being) [nM] Cap.
With “4-[[[2-(3-Chlorophenyl)-5-(trifluoromethyl)-2H-pyrazol-3-yl]-methyl-carbamoyl]-methyl]-N-[4-(trifluoromethyl)-phenyl]-benzamide [Example E51]”, the inhibitory constant (Ki) turned out to be 49 nM.
On the same count and under the same terms, to `CCS(=O)(=O)NCc1ccc(C(C)C(=O)NCc2cc(C(F)(F)F)nn2-c2cccc(Cl)c2)cc1F` (stereo not shown) [Example B17, N-[[2-(3-Chlorophenyl)-5-(trifluoromethyl)-2H-pyrazol-3-yl]-methyl]-2-[4-[[(ethylsulfonyl)amino]-methyl]-3-fluoro-phenyl]-propionamide] belongs 3 nM; to `CC(C)(C)c1cc(CNC(=O)Nc2ccc(CNS(C)(=O)=O)c(F)c2)n(-c2ccc(F)c(F)c2)n1` [Example B72, 1-[[5-tert-Butyl-2-(3,4-difluoro-phenyl)-2H-pyrazol-3-yl]-methyl]-3-[3-fluoro-4-(methanesulfonamido-methyl)-phenyl]-urea], 13 nM.
On the same count and under the same terms, to `CC(C)(C)c1cc(CNC(=O)Nc2ccc(CN)c(F)c2)n(-c2cccc(Cl)c2)n1` [Example B40, 1-[4-(Aminomethyl)-3-fluoro-phenyl]-3-[[5-tert-butyl-2-(3-chlorophenyl)-2H-pyrazol-3-yl]-methyl]-urea] belongs 92 nM; to “4-[[[5-tert-Butyl-2-(3-chlorophenyl)-2H-pyrazol-3-yl]-methyl-carbamoyl]-methyl]-N-(4-chlorophenyl)-benzamide [Example E30]”, 3 nM.
Same read-out and setting: to `CCS(=O)(=O)NCc1ccc(NC(=O)NCc2cc(C(F)(F)F)nn2-c2cccc(C)c2)cc1` [Example B91, 1-[4-[[(Ethylsulfonyl)amino]-methyl]-phenyl]-3-[[2-(m-tolyl)-5-(trifluoromethyl)-2H-pyrazol-3-yl]-methyl]-urea] belongs 57 nM; to “4-[[[2-(3-Chlorophenyl)-5-(trifluoromethyl)-2H-pyrazol-3-yl]-methyl-carbamoyl]-methyl]-2-fluoro-N-(4-fluorophenyl)-benzamide [Example E38]”, 3 nM; to `CC(C)(C)c1cc(CNC(=O)Nc2ccc(CNS(N)(=O)=O)cc2)n(-c2ccc(F)c(F)c2)n1` [Example B74, 1-[[5-tert-Butyl-2-(3,4-difluoro-phenyl)-2H-pyrazol-3-yl]-methyl]-3-[4-[(sulfamoylamino)-methyl]-phenyl]-urea], 37 nM.
On to `COc1cc(NC(=O)NCc2cc(C(F)(F)F)nn2-c2cccc(C)c2)ccc1CNS(C)(=O)=O` [Example B86, 1-[4-(Methanesulfonamido-methyl)-3-methoxy-phenyl]-3-[[2-(m-tolyl)-5-(trifluoromethyl)-2H-pyrazol-3-yl]-methyl]-urea], for which the Ki stood at 93 nM.
The same measure, in the same setting: to `CC(C(=O)NCc1cc(C(C)(C)C)nn1-c1ccc(Cl)cc1)c1ccc(CNS(C)(=O)=O)c(F)c1` (stereo not shown) [Example B20, N-[[5-tert-Butyl-2-(4-chlorophenyl)-2H-pyrazol-3-yl]-methyl]-2-[3-fluoro-4-(methanesulfonamido-methyl)-phenyl]-propionamide] belongs 52 nM; to `CC(C)(C)c1cc(CNC(=O)Nc2ccc(CNS(C)(=O)=O)c(F)c2)n(-c2ccc(F)cc2)n1` [Example B53, 1-[[5-tert-Butyl-2-(4-fluorophenyl)-2H-pyrazol-3-yl]-methyl]-3-[3-fluoro-4-(methanesulfonamido-methyl)-phenyl]-urea], 33 nM; to `CC(C(=O)NCc1cc(C(C)(C)C)nn1-c1cccc(Cl)c1)c1ccc(CNS(N)(=O)=O)cc1` (stereo not shown) [Example B103, N-[[5-tert-Butyl-2-(3-chlorophenyl)-2H-pyrazol-3-yl]-methyl]-2-[4-[(sulfamoylamino)-methyl]-phenyl]-propionamide], 0.7 nM.
Same read-out and setting: to `COc1cccc(-n2nc(C(F)(F)F)cc2CNC(=O)C(C)c2ccc(CNS(C)(=O)=O)c(F)c2)c1` (stereo not shown) [Example B15, 2-[3-Fluoro-4-(methanesulfonamido-methyl)-phenyl]-N-[[2-(3-methoxyphenyl)-5-(trifluoromethyl)-2H-pyrazol-3-yl]-methyl]-propionamide] belongs 6 nM; to `NS(=O)(=O)NCc1ccc(NC(=O)NCc2cc(C(F)(F)F)nn2-c2ccc(F)c(F)c2)cc1` [Example B57, 1-[[2-(3,4-Difluoro-phenyl)-5-(trifluoromethyl)-2H-pyrazol-3-yl]-methyl]-3-[4-[(sulfamoylamino)-methyl]-phenyl]-urea], 58 nM.
As for `CC(C(=O)NCc1cc(C(F)(F)F)nn1-c1cccc(Cl)c1)c1ccc(S(C)(=O)=O)c(Cl)c1` (stereo not shown) [Example D5, 2-(3-Chloro-4-methylsulfonyl-phenyl)-N-[[2-(3-chlorophenyl)-5-(trifluoromethyl)-2H-pyrazol-3-yl]-methyl]-propionamide], the inhibition constant (Ki) is 7 nM.
Still for that read-out and setting: to “N-(4-Chlorophenyl)-4-[1-[[2-(3-chlorophenyl)-5-(trifluoromethyl)-2H-pyrazol-3-yl]-methyl-carbamoyl]-ethyl]-benzamide [Example E33]” belongs 6 nM; to `CC(C(=O)NCc1cc(C(F)(F)F)nn1-c1cccc(Cl)c1)c1ccc(CNS(N)(=O)=O)cc1` (stereo not shown) [Example B102, N-[[2-(3-Chlorophenyl)-5-(trifluoromethyl)-2H-pyrazol-3-yl]-methyl]-2-[4-[(sulfamoylamino)-methyl]-phenyl]-propionamide], 1 nM.
On the same count and under the same terms, to `NS(=O)(=O)NCc1ccc(NC(=O)NCc2cc(C(F)(F)F)nn2-c2ccc(F)c(F)c2)cc1F` [Example B62, 1-[[2-(3,4-Difluoro-phenyl)-5-(trifluoromethyl)-2H-pyrazol-3-yl]-methyl]-3-[3-fluoro-4-[(sulfamoylamino)-methyl]-phenyl]-urea] belongs 36 nM.
Still for that read-out and setting: to `CC(C(=O)NCc1cc(C(C)(C)C)nn1-c1ccc(F)c(Cl)c1)c1ccc(CNS(N)(=O)=O)c(F)c1` (stereo not shown) [Example B96, N-[[5-tert-Butyl-2-(3-chloro-4-fluoro-phenyl)-2H-pyrazol-3-yl]-methyl]-2-[3-fluoro-4-[(sulfamoylamino)-methyl]-phenyl]-propionamide] belongs 0.9 nM.
On to `CCC(=O)c1ccc(C(C)C(=O)NCc2cc(C(F)(F)F)nn2-c2ccc(F)c(F)c2)cc1F` (stereo not shown) [Example E3, N-[[2-(3,4-Difluoro-phenyl)-5-(trifluoromethyl)-2H-pyrazol-3-yl]-methyl]-2-(3-fluoro-4-propanoyl-phenyl)-propionamide], for which the Ki was determined as 62 nM.
The same measure, in the same setting: to `Cc1cccc(-n2nc(C(C)(C)C)cc2CNC(=O)Nc2ccc(CNS(C)(=O)=O)cc2)c1` [Example B90, 1-[[5-tert-Butyl-2-(m-tolyl)-2H-pyrazol-3-yl]-methyl]-3-[4-(methanesulfonamido-methyl)-phenyl]-urea] belongs 12 nM.
Same read-out and setting: to `CC(C(=O)NCc1cc(C(F)(F)F)nn1-c1cccc(Cl)c1)c1ccc(CNS(C)(=O)=O)c(F)c1` (stereo not shown) [Example B1, N-[[2-(3-Chlorophenyl)-5-(trifluoromethyl)-2H-pyrazol-3-yl]-methyl]-2-[3-fluoro-4-(methanesulfonamido-methyl)-phenyl]-propionamide] belongs 5 nM; to `Cc1cccc(-n2nc(C(C)(C)C)cc2CNC(=O)C(C)c2ccc(CNS(C)(=O)=O)c(F)c2)c1` (stereo not shown) [Example B88, N-[[5-tert-Butyl-2-(m-tolyl)-2H-pyrazol-3-yl]-methyl]-2-[3-fluoro-4-(methanesulfonamido-methyl)-phenyl]-propionamide], 29 nM.
On the same count and under the same terms, to `CC(C(=O)NCc1cc(C(C)(C)C)nn1-c1cccc(Cl)c1)c1ccc(CNS(C)(=O)=O)c(Cl)c1` (stereo not shown) [Example B13, N-[[5-tert-Butyl-2-(3-chlorophenyl)-2H-pyrazol-3-yl]-methyl]-2-[3-chloro-4-(methanesulfonamido-methyl)-phenyl]-propionamide] belongs 1 nM.
As for `CCS(=O)(=O)NCc1ccc(NC(=O)NCc2cc(C(C)(C)C)nn2-c2cccc(Cl)c2)cc1` [Example B85, 1-[[5-tert-Butyl-2-(3-chlorophenyl)-2H-pyrazol-3-yl]-methyl]-3-[4-[[(ethylsulfonyl)amino]-methyl]-phenyl]-urea], the inhibition constant (Ki) was determined as 16 nM.
Still for that read-out and setting: to `CCC(=O)c1ccc(C(C)C(=O)NCc2cc(C(F)(F)F)nn2-c2cccc(OC)c2)cc1F` (stereo not shown) [Example E2, 2-(3-Fluoro-4-propanoyl-phenyl)-N-[[2-(3-methoxyphenyl)-5-(trifluoromethyl)-2H-pyrazol-3-yl]-methyl]-propionamide] belongs 35 nM.
